8 compounds from patent US20100222322A1, “Non-Nucleoside Reverse Transcriptase Inhibitors” (MERCK & CO., INC., priority 2005, published 2010) can be followed below.

Where two headings read alike, the source gives them in different places.

For assay [1], the target named is T1, mutant HIV reverse transcriptase with the Y181C mutation (Human immunodeficiency virus type 1 group M subtype B, UniProt P04585, Y768C).
T1 construct: mutations that occur in the reverse transcriptase segment of the pol gene; made in house
Description: Analogous RT inhibition assay, Y181C mutant. The format is biochemical. Here is the method: (§1) 100 μL reaction mixtures were initiated with a combination of primer-template substrate (10 nM final concentration) and dNTPs (0.6 μM dNTPs, 0.75 μM [^3H]-dGTP). The heterodimeric nucleic acid substrate was generated by annealing the DNA primer pD500 (described in Shaw-Reid et al., J. Biol. Chem., 278: 2777-2780; obtained from Integrated DNA Technologies) to t500, a 500 nucleotide RNA template created by in vitro transcription (see Shaw-Reid et al., J. Biol. Chem., 278: 2777-2780). After 1 hour incubation at 37° C., reactions were quenched by 10 μL streptavidin scintillation proximity assay beads (10 mg/mL, from Amersham Biosciences) in 0.5 M EDTA, pH 8. Microtiter plates were incubated an additional 10 minutes at 37° C. prior to quantification via Topcount (Packard).
(§2) Analogous assays were conducted substituting mutant HIV strains to determine the […] inhibition of compounds of the present invention against mutant HIV reverse transcriptase. In one strain the reverse transcriptase has the Y181C mutation and in the other strain the reverse transcriptase has the K103N mutation. The mutations were generated with the […] site-directed mutagenesis kit (Stratagene). […] The compounds set forth in the other Examples were not tested in the Y181C assay. […] The compounds set forth in the other Examples were not tested in the K103N assay.

Assay [2] deals with T2, mutant HIV reverse transcriptase with the K103N mutation (Human immunodeficiency virus type 1 group M subtype B, UniProt P04585, K690N).
T2 construct: mutations that occur in the reverse transcriptase segment of the pol gene; made in house
Description: Analogous RT inhibition assay, K103N mutant. The format is biochemical. Here is the method: as §1, §2

Assay [3] deals with HIV replication in T-lymphoid cells. Description: Spread assay: inhibition of acute HIV infection of T-lymphoid cells. The format is cell-based. Particulars: Human immunodeficiency virus 1; acute HIV infection of T-lymphoid cells; tested up to 10 micromolar; read-out: IC95, spread assay (inhibition of HIV replication). As for the experimental part:
An assay for the inhibition of acute HIV infection of T-lymphoid cells (alternatively referred to herein as the “spread assay”) was conducted in accordance with Vacca, J. P. et al., Proc. Natl. Acad. Sci. USA 1994, 91: 4096. […] The compounds of Examples 26, 29, 30, 33-35 and 62 were tested in the spread assay up to 10 micromolar, but specific IC95 values were not obtained; i.e., the IC95 values were greater than 10 micromolar. The compounds of Examples 47 and 61 were not tested.

Where [4] appears, read: RT with Y181C mutation, tested up to 20 micromolar, read-out: IC50, Y181C mutant assay.

In general, IC50 refers to the concentration that gives 50% inhibition. As a reminder, the IC95 is the concentration at which the effect reaches the 95% level. In the case of `NC(=O)c1[nH]c2ccc(Cl)cc2c1S(=O)(=O)N1CCC(F)C1` (stereo not drawn) [Example 38, 5-chloro-3-[(3-fluoropyrrolidin-1-yl)sulfonyl]-1H-indole-2-carboxamide], the IC50 was under 1000 nM in assay [1] (setting [4]) and 1000 to 20000 nM in assay [2]. For the same compound, in assay [3], the IC95 is under 1000 nM.
`O=C(NCc1c(F)cccc1Cl)c1[nH]c2ccc(Br)cc2c1S(=O)(=O)N1CCCC1` [Example 48, 5-bromo-N-(2-chloro-6-fluorobenzyl)-3-(pyrrolidin-1-ylsulfonyl)-1H-indole-2-carboxamide]: the IC50 in assay [1] and in assay [2] was under 1000 nM each time. Besides, the IC95 in assay [3] is under 1000 nM.
Take `O=C(NCc1ccccc1O)c1[nH]c2ccc(Br)cc2c1S(=O)(=O)N1CCCC1` [Example 51, 5-bromo-N-(2-hydroxybenzyl)-3-(pyrrolidin-1-ylsulfonyl)-1H-indole-2-carboxamide]: the IC50 in assay [1] and in assay [2] was under 1000 nM throughout. Also, the IC95 in assay [3] was under 1000 nM.
`O=C(NCc1ccccc1OC(F)F)c1[nH]c2ccc(Br)cc2c1S(=O)(=O)N1CCCC1` [Example 53, 5-bromo-N-[2-(difluoromethoxy)benzyl]-3-(pyrrolidin-1-ylsulfonyl)-1H-indole-2-carboxamide]: the IC50 in assay [1] and in assay [2] was under 1000 nM throughout. The IC95 in assay [3] is under 1000 nM.
With `O=C(NCc1ccn[nH]1)c1[nH]c2ccc(Br)cc2c1S(=O)(=O)N1CCCC1` [Example 59, 5-bromo-N-(1H-pyrazol-5-ylmethyl)-3-(pyrrolidin-1-ylsulfonyl)-1H-indole-2-carboxamide], the IC50 in assay [1] and in assay [2] was under 1000 nM throughout. The IC95 in assay [3] was under 1000 nM.
Consider `O=C(NCc1ccncc1)c1[nH]c2ccc(Br)cc2c1S(=O)(=O)N1CCCC1` [Example 64, 5-bromo-N-(pyridin-4-ylmethyl)-3-(pyrrolidin-1-ylsulfonyl)-1H-indole-2-carboxamide], for which the IC50 in assay [1] and in assay [2] was under 1000 nM in each case. Further, the IC95 in assay [3] was under 1000 nM.
As for `O=C(NCc1cncs1)c1[nH]c2ccc(Br)cc2c1S(=O)(=O)N1CCCC1` [Example 65, 5-bromo-3-(pyrrolidin-1-ylsulfonyl)-N-(1,3-thiazol-5-ylmethyl)-1H-indole-2-carboxamide], the IC50 in assay [1] and in assay [2] was under 1000 nM in each case. Also, the IC95 in assay [3] is under 1000 nM.
As to `N#Cc1ccc2[nH]c(C(N)=O)c(S(=O)(=O)N3CCCC3)c2c1` [Example 68, 5-Cyano-3-(pyrrolidin-1-ylsulfonyl)-1H-indole-2-carboxamide], the IC50 in assay [1] (setting [4]) was over 20000 nM; in assay [2] (RT with K103N mutation, tested up to 20 micromolar, read-out: IC50, K103N mutant assay) it was 1000 to 20000 nM. In addition, the IC95 in assay [3] was under 1000 nM.
